Reference: patent publication US20250235543A1, “MODIFIED PROTEINS AND PROTEIN DEGRADERS” (Cullgen (Shanghai), Inc., priority 2021, published 2025)
Like-named read-outs stand apart in the source and are kept apart here. Values belong to the compound of their own block, whether it stands above or below them.

Columns and labels:
cyclin D1 = test: Cyclin D1 percentage degradation in Calu-1 cells (immunoblotting); format: cell-based; conditions: 16 hours
Summary of the method: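 Cyclin D1 degradation was assessed by western blot. Clarified lysates, obtained by RIPA lysis with inhibitors and centrifugation at 13,000 rpm, were normalized by BCA protein assay and separated by SDS-PAGE. Bands were detected with Western ECL Substrate on a Bio-Rad ChemiDoc MP Imaging system and quantified in Image Lab software to derive percentage degradation.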

CDK4 = molecular target: T1, CDK4 (Homo sapiens, UniProt P11802); test: CDK4 percentage degradation in Calu-1 cells (immunoblotting); format: cell-based; conditions: for inhibition at 0.2 µM: read-out: CDK4 Degradation (200 nM); for inhibition at 10 µM: read-out: CDK4 Degradation (10 μM)
T1 construct: endogenous in cells; host or cells: Calu-1
T1 sequence (P11802 2-303 limits assumed): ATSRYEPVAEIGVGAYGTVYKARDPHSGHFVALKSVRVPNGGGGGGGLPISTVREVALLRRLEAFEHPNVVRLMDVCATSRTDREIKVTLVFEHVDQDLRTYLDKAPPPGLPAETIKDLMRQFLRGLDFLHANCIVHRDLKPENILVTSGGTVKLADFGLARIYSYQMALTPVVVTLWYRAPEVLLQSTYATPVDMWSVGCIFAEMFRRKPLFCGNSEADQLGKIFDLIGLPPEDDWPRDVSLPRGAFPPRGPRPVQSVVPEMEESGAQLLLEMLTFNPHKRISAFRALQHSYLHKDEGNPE
T1 sequence (P24385 whole entry partner): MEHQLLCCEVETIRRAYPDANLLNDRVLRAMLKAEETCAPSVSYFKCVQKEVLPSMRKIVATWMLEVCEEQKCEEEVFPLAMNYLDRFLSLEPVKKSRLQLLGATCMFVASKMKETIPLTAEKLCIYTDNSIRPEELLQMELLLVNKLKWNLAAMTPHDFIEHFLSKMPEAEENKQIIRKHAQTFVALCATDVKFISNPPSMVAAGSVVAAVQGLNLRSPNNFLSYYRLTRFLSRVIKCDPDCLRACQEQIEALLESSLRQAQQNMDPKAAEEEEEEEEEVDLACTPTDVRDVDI
T1 sequence (Q16531 2-1140 limits assumed, further chain): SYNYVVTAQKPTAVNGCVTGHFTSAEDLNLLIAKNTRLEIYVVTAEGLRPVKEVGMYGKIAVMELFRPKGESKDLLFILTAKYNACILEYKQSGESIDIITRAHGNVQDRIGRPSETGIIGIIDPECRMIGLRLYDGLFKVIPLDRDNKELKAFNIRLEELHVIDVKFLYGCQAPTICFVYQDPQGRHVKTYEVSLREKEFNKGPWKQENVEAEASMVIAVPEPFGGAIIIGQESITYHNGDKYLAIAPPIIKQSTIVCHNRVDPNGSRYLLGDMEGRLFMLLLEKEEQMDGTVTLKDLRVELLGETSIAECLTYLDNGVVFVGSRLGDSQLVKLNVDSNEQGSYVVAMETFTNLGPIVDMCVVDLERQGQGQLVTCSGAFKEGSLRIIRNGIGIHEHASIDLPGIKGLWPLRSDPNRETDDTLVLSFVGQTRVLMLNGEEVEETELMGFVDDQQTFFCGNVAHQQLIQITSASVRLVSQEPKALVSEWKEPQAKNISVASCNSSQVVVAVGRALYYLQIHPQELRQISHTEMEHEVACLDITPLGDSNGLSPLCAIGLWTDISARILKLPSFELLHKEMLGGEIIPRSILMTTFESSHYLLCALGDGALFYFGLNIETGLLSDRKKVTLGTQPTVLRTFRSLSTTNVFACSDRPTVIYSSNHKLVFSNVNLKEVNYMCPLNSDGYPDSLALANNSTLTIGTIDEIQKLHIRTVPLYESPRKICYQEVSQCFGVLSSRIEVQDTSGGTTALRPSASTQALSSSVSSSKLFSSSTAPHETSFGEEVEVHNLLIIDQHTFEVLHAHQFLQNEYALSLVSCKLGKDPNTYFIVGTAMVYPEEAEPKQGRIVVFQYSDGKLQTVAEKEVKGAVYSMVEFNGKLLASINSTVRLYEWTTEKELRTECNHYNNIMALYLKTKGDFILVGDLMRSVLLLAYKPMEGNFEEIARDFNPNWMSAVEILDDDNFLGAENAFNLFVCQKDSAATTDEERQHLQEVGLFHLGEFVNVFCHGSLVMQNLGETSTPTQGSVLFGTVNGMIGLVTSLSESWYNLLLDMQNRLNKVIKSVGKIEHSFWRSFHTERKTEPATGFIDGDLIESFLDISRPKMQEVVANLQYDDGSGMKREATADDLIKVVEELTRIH
Summary of the method: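 CDK4 degradation was measured by immunoblotting. Cells were washed in cold PBS and lysed in RIPA buffer with inhibitors for 30 min at 4° C., then spun at 13,000 rpm to clear. After BCA protein determination, lysates were heated at 99° C. for 5 min in Laemmli buffer, resolved on SDS-PAGE, imaged on a ChemiDoc MP with ECL substrate, and band intensities quantified.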

SMILES: COc1cnc(NC(=O)c2ccc(NCCOCCOCCOCCOCCOCCNC(=O)CN3CCN(c4ccc(Nc5ncc6c(C)c(C(C)=O)c(=O)n(C7CCCC7)c6n5)nc4)CC3)cc2C)s1 [CPD-030, 4-((1-(4-(6-((6-Acetyl-8-cyclopentyl-5-methyl-7-oxo-7,8-dihydropyrido[2,3-d]pyrimidin-2-yl)amino)pyridin-3-yl)piperazin-1-yl)-2-oxo-6,9,12,15,18-pentaoxa-3-azaicosan-20-yl)amino)-N-(5-methoxythiazol-2-yl)-2-methylbenzamide]
CyclinD1 Degradation (200 nM) (cyclin D1): B (protein percentage degradation <80%, and >=50%)
inhibition at 0.2 µM (CDK4; Calu-1 cells, 200 nM, 16 hours): 30 to 50%

SMILES: CC(=O)c1c(C)c2cnc(Nc3ccc(N4CCN(CC(=O)NCCCCCNc5cc(C#N)ccc5C(=O)Nc5ccc(N(C)C)nn5)CC4)cn3)nc2n(C2CCCC2)c1=O [CPD-376, 2-((5-(2-(4-(6-((6-Acetyl-8-cyclopentyl-5-methyl-7-oxo-7,8-dihydropyrido[2,3-d]pyrimidin-2-yl)amino)pyridin-3-yl)piperazin-1-yl)acetamido)pentyl)amino)-4-cyano-N-(6-(dimethylamino)pyridazin-3-yl)benzamide]
CyclinD1 Degradation (200 nM) (cyclin D1): A (protein percentage degradation >=80%)
inhibition at 0.2 µM (CDK4; Calu-1 cells, 200 nM, 16 hours): 50 to 80%

SMILES: CC(=O)c1c(C)c2cnc(Nc3ccc(N4CCN(CC(=O)NCCOCCOCCOCCOCCOCCNc5ccc(C(=O)Nc6ncc(C7CC7)s6)c(C)c5)CC4)cn3)nc2n(C2CCCC2)c1=O [CPD-029, 4-((1-(4-(6-((6-Acetyl-8-cyclopentyl-5-methyl-7-oxo-7,8-dihydropyrido[2,3-d]pyrimidin-2-yl)amino)pyridin-3-yl)piperazin-1-yl)-2-oxo-6,9,12,15,18-pentaoxa-3-azaicosan-20-yl)amino)-N-(5-cyclopropylthiazol-2-yl)-2-methylbenzamide]
CyclinD1 Degradation (200 nM) (cyclin D1): D (protein percentage degradation <30%)
inhibition at 0.2 µM (CDK4; Calu-1 cells, 200 nM, 16 hours): < 30%

SMILES: CC(=O)c1c(C)c2cnc(Nc3ccc(N4CCN(C(=O)CCCNc5ccc(C)c(C(=O)Nc6nc(C)c(C)s6)c5)CC4)cn3)nc2n(C2CCCC2)c1=O [CPD-165, 5-((4-(4-(6-((6-Acetyl-8-cyclopentyl-5-methyl-7-oxo-7,8-dihydropyrido[2,3-d]pyrimidin-2-yl)amino)pyridin-3-yl)piperazin-1-yl)-4-oxobutyl)amino)-N-(4,5-dimethylthiazol-2-yl)-2-methylbenzamide]
CyclinD1 Degradation (200 nM) (cyclin D1): D (protein percentage degradation <30%)
inhibition at 0.2 µM (CDK4; Calu-1, 16 h): < 30%

SMILES: CCc1nc(NC(=O)c2ccccc2NC(=O)CCOCCOCCNC(=O)CN2CCN(c3ccc(Nc4ncc5c(C)c(C(C)=O)c(=O)n(C6CCCC6)c5n4)nc3)CC2)sc1C [CPD-075, 2-(3-(2-(2-(2-(4-(6-((6-Acetyl-8-cyclopentyl-5-methyl-7-oxo-7,8-dihydropyrido[2,3-d]pyrimidin-2-yl)amino)pyridin-3-yl)piperazin-1-yl)acetamido)ethoxy)ethoxy)propanamido)-N-(4-ethyl-5-methylthiazol-2-yl)benzamide]
CyclinD1 Degradation (200 nM) (cyclin D1): A (protein percentage degradation >=80%)
inhibition at 0.2 µM (CDK4; Calu-1 cells, 200 nM, 16 hours): > 80%

SMILES: COc1ccc(NC(=O)c2ccc(N(C)C)cc2NC(=O)CCOCCOCCNC(=O)CN2CCN(c3ccc(Nc4ncc5c(C)c(C(C)=O)c(=O)n(C6CCCC6)c5n4)nc3)CC2)nn1 [CPD-365, 2-(3-(2-(2-(2-(4-(6-((6-Acetyl-8-cyclopentyl-5-methyl-7-oxo-7,8-dihydropyrido[2,3-d]pyrimidin-2-yl)amino)pyridin-3-yl)piperazin-1-yl)acetamido)ethoxy)ethoxy)propanamido)-4-(dimethylamino)-N-(6-methoxypyridazin-3-yl)benzamide]
CyclinD1 Degradation (200 nM) (cyclin D1): A (protein percentage degradation >=80%)
inhibition at 0.2 µM (CDK4; Calu-1 cells, 200 nM, 16 hours): > 80%

SMILES: CC(=O)c1c(C)c2cnc(Nc3ccc(N4CCN(CC(=O)NCCOCCOCCC(=O)Nc5ccccc5C(=O)Nc5nc(C6CC6)c(C)s5)CC4)cn3)nc2n(C2CCCC2)c1=O [CPD-057, 2-(3-(2-(2-(2-(4-(6-((6-Acetyl-8-cyclopentyl-5-methyl-7-oxo-7,8-dihydropyrido[2,3-d]pyrimidin-2-yl)amino)pyridin-3-yl)piperazin-1-yl)acetamido)ethoxy)ethoxy)propanamido)-N-(4-cyclopropyl-5-methylthiazol-2-yl)benzamide]
CyclinD1 Degradation (200 nM) (cyclin D1): A (protein percentage degradation >=80%)
inhibition at 0.2 µM (CDK4; Calu-1 cells, 200 nM, 16 hours): 50 to 80%

SMILES: CC(=O)c1c(C)c2cnc(Nc3ccc(N4CCN(CC(=O)NCCOCCOCCC(=O)NC5CCCCC5C(=O)Nc5nc(C)c(C)s5)CC4)cn3)nc2n(C2CCCC2)c1=O (centres unmarked) [CPD-179, 2-(3-(2-(2-(2-(4-(6-((6-Acetyl-8-cyclopentyl-5-methyl-7-oxo-7,8-dihydropyrido[2,3-d]pyrimidin-2-yl)amino)pyridin-3-yl)piperazin-1-yl)acetamido)ethoxy)ethoxy)propanamido)-N-(4,5-dimethylthiazol-2-yl)cyclohexane-1-carboxamide]
CyclinD1 Degradation (200 nM) (cyclin D1): D (protein percentage degradation <30%)
inhibition at 0.2 µM (CDK4; Calu-1 cells, 200 nM, 16 hours): < 30%

SMILES: CC(=O)c1c(C)c2cnc(Nc3ccc(N4CCN(CC(=O)NCCOCCOCCC(=O)Nc5ccc(N(C)C)cc5C(=O)Nc5nc(C)c(C)s5)CC4)cn3)nc2n(C2CCCC2)c1=O [CPD-151, 2-(3-(2-(2-(2-(4-(6-((6-Acetyl-8-cyclopentyl-5-methyl-7-oxo-7,8-dihydropyrido[2,3-d]pyrimidin-2-yl)amino)pyridin-3-yl)piperazin-1-yl)acetamido)ethoxy)ethoxy)propanamido)-5-(dimethylamino)-N-(4,5-dimethylthiazol-2-yl)benzamide]
CyclinD1 Degradation (200 nM) (cyclin D1): C (protein percentage degradation <50%, and >=30%)
inhibition at 0.2 µM (CDK4; Calu-1 cells, 200 nM, 16 hours): 50 to 80%

Further lines, with some results ahead:

inhibition at 10 µM (CDK4; Calu-1 cells, 16 hours): 50 to 80%
SMILES: Cc1nc(NC(=O)c2ccccc2NC(=O)CCCCCCCNC(=O)CN2CCN(c3ccc(Nc4ncc5cc6n(c5n4)C4(CCCCC4)CNC6=O)nc3)CC2)sc1C [CPD-320, N-(4,5-Dimethylthiazol-2-yl)-2-(8-(2-(4-(6-((6′-oxo-7′,8′-dihydro-6′H-spiro[cyclohexane-1,9′-pyrazino[1′,2′:1,5]pyrrolo[2,3-d]pyrimidin]-2′-yl)amino)pyridin-3-yl)piperazin-1-yl)acetamido)octanamido)benzamide]
CyclinD1 Degradation (10 μM) (cyclin D1): A (protein percentage degradation >= 80%)

inhibition at 10 µM (CDK4; Calu-1 cells, 16 hours): < 30%
SMILES: Cc1nc(NC(=O)c2ccccc2NC(=O)CCCCCCNC(=O)CN2CCN(c3ccc(Nc4ncc(F)c(-c5cc(F)c6nc(C)n(C(C)C)c6c5)n4)nc3)CC2)sc1C [CPD-305, N-(4,5-Dimethylthiazol-2-yl)-2-(7-(2-(4-(6-((5-fluoro-4-(4-fluoro-1-isopropyl-2-methyl-1H-benzo[d]imidazol-6-yl)pyrimidin-2-yl)amino)pyridin-3-yl)piperazin-1-yl)acetamido)heptanamido)benzamide]
CyclinD1 Degradation (10 μM) (cyclin D1): D (protein percentage degradation < 30%)

inhibition at 10 µM (CDK4; Calu-1 cells, 16 hours): < 30%
SMILES: Cc1nc(NC(=O)c2ccccc2NC(=O)CCOCCOCCOCCOCCOCCOCCNC(=O)CN2CCN(Cc3ccc(Nc4ncc(F)c(-c5cc(F)c6nc(C)n(C(C)C)c6c5)n4)nc3)CC2)sc1C [CPD-285, N-(4,5-Dimethylthiazol-2-yl)-2-(1-(4-((6-((5-fluoro-4-(4-fluoro-1-isopropyl-2-methyl-1H-benzo[d]imidazol-6-yl)pyrimidin-2-yl)amino)pyridin-3-yl)methyl)piperazin-1-yl)-2-oxo-6,9,12,15,18,21-hexaoxa-3-azatetracosan-24-amido)benzamide]
CyclinD1 Degradation (10 μM) (cyclin D1): D (protein percentage degradation < 30%)

inhibition at 0.2 µM (CDK4; Calu-1 cells, 200 nM, 16 hours): > 80%
SMILES: CNc1ccc(C(=O)Nc2nc(C)c(C)s2)c(NCCCCCCCNC(=O)CN2CCN(c3ccc(Nc4ncc5c(C)c(C(C)=O)c(=O)n(C6CCCC6)c5n4)nc3)CC2)c1 [CPD-370, 2-((7-(2-(4-(6-((6-Acetyl-8-cyclopentyl-5-methyl-7-oxo-7,8-dihydropyrido[2,3-d]pyrimidin-2-yl)amino)pyridin-3-yl)piperazin-1-yl)acetamido)heptyl)amino)-N-(4,5-dimethylthiazol-2-yl)-4-(methylamino)benzamide]
CyclinD1 Degradation (200 nM) (cyclin D1): A (protein percentage degradation >=80%)

inhibition at 10 µM (CDK4; Calu-1 cells, 16 hours): 30 to 50%
SMILES: Cc1nc(NC(=O)c2ccccc2NC(=O)CCCCCCNC(=O)CN2CCN(c3ccc(Nc4ncc5cc(C(=O)N(C)C)n(C6CCCC6)c5n4)nc3)CC2)sc1C [CPD-291, 7-Cyclopentyl-2-((5-(4-(2-((7-((2-((4,5-dimethylthiazol-2-yl)carbamoyl)phenyl)amino)-7-oxoheptyl)amino)-2-oxoethyl)piperazin-1-yl)pyridin-2-yl)amino)-N,N-dimethyl-7H-pyrrolo[2,3-d]pyrimidine-6-carboxamide]
CyclinD1 Degradation (10 μM) (cyclin D1): B (protein percentage degradation < 80%, and >= 50%)

inhibition at 0.2 µM (CDK4; Calu-1 cells, 200 nM, 16 hours): < 30%
SMILES: CC(=O)c1c(C)c2cnc(Nc3ccc(N4CCN(CC(=O)NCCCCNc5cccc(C(=O)Nc6nc(C)c(C)s6)c5C)CC4)cn3)nc2n(C2CCCC2)c1=O [CPD-099, 3-((4-(2-(4-(6-((6-Acetyl-8-cyclopentyl-5-methyl-7-oxo-7,8-dihydropyrido[2,3-d]pyrimidin-2-yl)amino)pyridin-3-yl)piperazin-1-yl)acetamido)butyl)amino)-N-(4,5-dimethylthiazol-2-yl)-2-methylbenzamide]
CyclinD1 Degradation (200 nM) (cyclin D1): D (protein percentage degradation <30%)

inhibition at 10 µM (CDK4; Calu-1 cells, 16 hours): 30 to 50%
SMILES: Cc1nc(NC(=O)c2ccccc2NC(=O)CCCCCNC(=O)CN2CCN(c3ccc(Nc4ncc5cc(C(=O)N(C)C)n(C6CCCC6)c5n4)nc3)CC2)sc1C [CPD-290, 7-Cyclopentyl-2-((5-(4-(2-((6-((2-((4,5-dimethylthiazol-2-yl)carbamoyl)phenyl)amino)-6-oxohexyl)amino)-2-oxoethyl)piperazin-1-yl)pyridin-2-yl)amino)-N,N-dimethyl-7H-pyrrolo[2,3-d]pyrimidine-6-carboxamide]
CyclinD1 Degradation (10 μM) (cyclin D1): B (protein percentage degradation < 80%, and >= 50%)
